Results as given in the supplement of paper PMC10307832.

Assays:
Assay in all cases: relative viability (nuclei count vs DMSO), 5 days (fraction); higher = more cells survive
Gemcitabine + Vorinostat = compound: Nc1ccn([C@@H]2O[C@H](CO)[C@@H](O)C2(F)F)c(=O)n1 [Gemcitabine] + O=C(CCCCCCC(=O)Nc1ccccc1)NO [Vorinostat] (partner 1 µM)
Procedure, shortened: (§1)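 Medians of duplicate plates are given as relative viability. That measure is the nuclei count in treated wells divided by the count in vehicle wells. Counts were taken on 4× images of lung cancer cell lines in 1536-well plates, 5 days after pin-tool dosing the day after seeding with one drug alone or a fixed anchor-drug dose plus five library-drug doses (not always all listed) in √10 steps.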

Gemcitabine + AZD7762 = compound: Nc1ccn([C@@H]2O[C@H](CO)[C@@H](O)C2(F)F)c(=O)n1 [Gemcitabine] + NC(=O)Nc1cc(-c2cccc(F)c2)sc1C(=O)N[C@H]1CCCNC1 [AZD7762] (partner 0.2 µM)
Procedure, shortened: as §1

[1] = compound: Nc1ccn([C@@H]2O[C@H](CO)[C@@H](O)C2(F)F)c(=O)n1 [Gemcitabine] + CC(=O)c1c(C)c2cnc(Nc3ccc(N4CCNCC4)cn3)nc2n(C2CCCC2)c1=O [Palbociclib] (partner 0.5 µM)
Procedure, shortened: as §1

Gemcitabine + Crizotinib = compound: Nc1ccn([C@@H]2O[C@H](CO)[C@@H](O)C2(F)F)c(=O)n1 [Gemcitabine] + C[C@@H](Oc1cc(-c2cnn(C3CCNCC3)c2)cnc1N)c1c(Cl)ccc(F)c1Cl [Crizotinib] (partner 1 µM)
Procedure, shortened: as §1

Cell Line | relative viability (Gemcitabine + Vorinostat; first compound 0.001 µM) | relative viability (Gemcitabine + Vorinostat; first compound 0.003162 µM) | relative viability (Gemcitabine + Vorinostat; first compound 0.01 µM) | relative viability (Gemcitabine + Vorinostat; first compound 0.03162 µM) | relative viability (Gemcitabine + Vorinostat; first compound 0.1 µM) | relative viability (Gemcitabine + AZD7762; first compound 0.001 µM) | relative viability (Gemcitabine + AZD7762; first compound 0.003162 µM) | relative viability (Gemcitabine + AZD7762; first compound 0.01 µM) | relative viability (Gemcitabine + AZD7762; first compound 0.03162 µM) | relative viability (Gemcitabine + AZD7762; first compound 0.1 µM) | relative viability ([1]; first compound 0.001 µM) | relative viability ([1]; first compound 0.003162 µM) | relative viability ([1]; first compound 0.01 µM) | relative viability ([1]; first compound 0.03162 µM) | relative viability ([1]; first compound 0.1 µM) | relative viability (Gemcitabine + Crizotinib; first compound 0.001 µM) | relative viability (Gemcitabine + Crizotinib; first compound 0.003162 µM) | relative viability (Gemcitabine + Crizotinib; first compound 0.01 µM) | relative viability (Gemcitabine + Crizotinib; first compound 0.03162 µM) | relative viability (Gemcitabine + Crizotinib; first compound 0.1 µM)
NCI-H647 | 0.435 | 0.129 | 0.0559 | 0.0673 | 0.0443 | 0.098 | 0.0427 | 0.0235 | 0.0216 | 0.0238 | 0.388 | 0.287 | 0.0692 | 0.0695 | 0.044 | 1.09 | 0.195 | 0.0721 | 0.0642 | 0.0615
NCI-H650 | 0.38 | 0.25 | 0.15 | 0.121 | 0.111 | 0.359 | 0.172 | 0.204 | 0.186 | 0.161 | 0.221 | 0.189 | 0.136 | 0.123 | 0.146 | 0.578 | 0.322 | 0.176 | 0.177 | 0.167
NCI-H727 | 1.29 | 0.716 | 0.456 | 0.513 | 0.428 | 0.545 | 0.45 | 0.389 | 0.311 | 0.403 | 0.674 | 0.592 | 0.574 | 0.597 | 0.503 | 0.771 | 0.32 | 0.243 | 0.266 | 0.219
NCI-H838 | 0.77 | 0.777 | 0.66 | 0.479 | 0.168 | 0.93 | 0.886 | 0.648 | 0.565 | 0.616 | 0.228 | 0.244 | 0.237 | 0.199 | 0.125 | 0.912 | 0.981 | 0.858 | 0.324 | 0.139
NCI-H1355 | 0.632 | 0.473 | 0.274 | 0.166 | 0.146 | 0.434 | 0.196 | 0.112 | 0.163 | 0.132 | 0.403 | 0.365 | 0.251 | 0.168 | 0.146 | 0.996 | 0.706 | 0.193 | 0.158 | 0.141
NCI-H1437 | 0.749 | 0.792 | 0.645 | 0.398 | 0.232 | 1.16 | 0.951 | 0.171 | 0.159 | 0.124 | 0.317 | 0.351 | 0.331 | 0.225 | 0.171 | 1.07 | 0.863 | 0.617 | 0.162 | 0.121
NCI-H1651 | 0.555 | 0.537 | 0.548 | 0.301 | 0.115 | 0.519 | 0.435 | 0.39 | 0.0714 | 0.0892 | 0.509 | 0.496 | 0.536 | 0.311 | 0.136 | 0.913 | 0.855 | 0.85 | 0.346 | 0.138
NCI-H1666 | 1.02 | 0.955 | 0.963 | 0.927 | 0.576 | 0.866 | 0.699 | 0.582 | 0.332 | 0.368 | 0.603 | 0.664 | 0.651 | 0.596 | 0.578 | 0.959 | 1.16 | 0.596 | 0.321 | 0.268
NCI-H1734 | 0.746 | 0.626 | 0.119 | 0.114 | 0.0915 | 0.153 | 0.118 | 0.0866 | 0.113 | 0.0969 | 0.318 | 0.293 | 0.174 | 0.149 | 0.131 | 0.8 | 0.48 | 0.246 | 0.106 | 0.104
NCI-H1755 | 0.804 | 0.751 | 0.599 | 0.469 | 0.313 | 0.462 | 0.396 | 0.236 | 0.26 | 0.245 | 0.431 | 0.425 | 0.401 | 0.414 | 0.421 | 0.92 | 0.845 | 0.681 | 0.268 | 0.218
NCI-H1915 | 0.49 | 0.5 | 0.45 | 0.391 | 0.258 | 0.768 | 0.662 | 0.656 | 0.127 | 0.0991 | 0.522 | 0.532 | 0.508 | 0.425 | 0.22 | 0.967 | 0.87 | 0.881 | 0.426 | 0.247
NCI-H1944 | 0.59 | 0.572 | 0.321 | 0.192 | 0.131 | 0.518 | 0.36 | 0.0907 | 0.109 | 0.086 | 0.357 | 0.286 | 0.268 | 0.229 | 0.171 | 1.28 | 1.02 | 0.953 | 0.304 | 0.141
NCI-H1975 | 0.741 | 0.714 | 0.372 | 0.18 | 0.186 | 0.699 | 0.353 | 0.19 | 0.247 | 0.204 | 0.638 | 0.502 | 0.48 | 0.148 | 0.122 | 0.996 | 1.01 | 0.48 | 0.201 | 0.16
